The text below walks through data of US20070191267A1, “Use of tyrosine kinase inhibitors for treating cerebral ischemia” (AB SCIENCE, priority 2003, published 2007).

The first series deals with T1, c-kit (Homo sapiens, UniProt P10721).
T1 construct: purified intracellular domain of c-kit expressed in baculovirus; made in house
T1 sequence (P10721 546-976 limits assumed): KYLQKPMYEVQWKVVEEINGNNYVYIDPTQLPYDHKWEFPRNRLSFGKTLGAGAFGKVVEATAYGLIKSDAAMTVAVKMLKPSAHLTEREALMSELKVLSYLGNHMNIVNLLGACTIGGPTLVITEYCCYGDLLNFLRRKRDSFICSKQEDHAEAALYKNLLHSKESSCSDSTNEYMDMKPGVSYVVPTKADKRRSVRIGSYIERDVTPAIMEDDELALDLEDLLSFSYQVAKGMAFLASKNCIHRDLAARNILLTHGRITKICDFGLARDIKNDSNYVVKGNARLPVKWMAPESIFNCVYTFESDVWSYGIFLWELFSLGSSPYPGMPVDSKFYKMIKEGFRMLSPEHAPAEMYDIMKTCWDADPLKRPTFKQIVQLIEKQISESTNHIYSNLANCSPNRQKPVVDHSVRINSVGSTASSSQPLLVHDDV
Put plainly: In vitro TK inhibition assay (ELISA, phosphorylation of tyrosine containing target peptide). The note with it: purified intracellular domain of c-kit expressed in baculovirus. The format is biochemical. The protocol:
in Vitro TK Inhibition Assays
Experiments were performed using purified intracellular domain of c-kit expressed in baculovirus. Estimation of the kinase activity was assessed by the phosphorylation of tyrosine containing target peptide estimated by established ELISA assay.
A word on the IC50: it is the midpoint of a concentration-inhibition curve. The molecule `Cc1ccc(NC(=O)Nc2ccccc2F)cc1Nc1nc(-c2cccnc2)cs1` [Compound 023, 1-(2-Fluoro-phenyl)-3-[4-methyl-3-(4-pyridin-3-yl-thiazol-2-ylamino)-phenyl]-urea] had an IC50 of less than 10 µM.

In the case of `Cc1ccc(NC(=O)c2cccc(C(F)(F)F)c2F)cc1Nc1nc(-c2cccnc2)cs1` [Compound 055, 2-Fluoro-N-[4-methyl-3-(4-pyridin-3-yl-thiazol-2-ylamino)-phenyl]-3-trifluoromethyl-benzamide], the IC50 is less than 10 µM.

`Cc1ccc(NC(=O)c2ccc(CN3CCN(C)CC3)c(F)c2)cc1Nc1nc(-c2cccnc2)cs1` [Compound 074, 3-Fluoro-4-(4-methyl-piperazin-1-ylmethyl)-N-[4-methyl-3-(4-pyridin-3-yl-thiazol-2-ylarnino)-phenyl]-benzamide] showed an IC50 of less than 10 µM.

`Cc1ccc(NC(=O)c2ccc(-c3ccncc3)cc2)cc1Nc1nc(-c2cccnc2)cs1` [Compound 053]: the IC50 is less than 10 µM.

System in a further series: not given
Test: not given
Conditions: not given
What is called melting point is the temperature, or range, at which the solid turns liquid. Take `Cc1ccc(NC(=O)c2ccc(C(C)(C)C)cc2)cc1Nc1nc(-c2cccnc2)cs1` [Compound 049, 4-tert-Butyl-N-[4-methyl-3-(4-pyridin-3-yl-thiazol-2-ylamino)-phenyl]-benzamide]: the melting point lay within 145 to 150 °C.

On to `Cc1ccc(NC(=O)c2ccc(NS(=O)(=O)c3cccs3)cc2)cc1Nc1nc(-c2cccnc2)cs1` [Compound 044, N-[4-Methyl-3-(4-pyridin-3-yl-thiazol-2-ylamino)-phenyl]-4-(thiophene-2-sulfonylamino)-benzamide], for which the melting point lay within 230 to 233 °C.

For the molecule `Cc1ccc(NC(=O)Nc2ccccc2F)cc1Nc1nc(-c2cccnc2)cs1` [Compound 023, 1-(2-Fluoro-phenyl)-3-[4-methyl-3-(4-pyridin-3-yl-thiazol-2-ylamino)-phenyl]-urea], the melting point lay within 203 to 206 °C.

In turn, `Cc1ccc(NC(=O)c2cccc(N3CCOCC3)c2)cc1Nc1nc(-c2cccnc2)cs1` [Compound 090, N-[4-Methyl-3-(4-pyridin-3-yl-thiazol-2-ylamino)-phenyl]-3-morpholin-4-yl-benzamid] came in with a melting point of 247 to 248 °C.

For `Cc1ccc(F)c(C(=O)Nc2ccc(C)c(Nc3nc(-c4cccnc4)cs3)c2)c1` [Compound 048, 2-Fluoro-5-methyl-N-[4-methyl-3-(4-pyridin-3-yl-thiazol-2-ylamino)-phenyl]-benzamide], the melting point fell in the range of 103 to 106 °C.

With `Cc1ccc(NC(=O)c2ccc(-c3ccncc3)cc2)cc1Nc1nc(-c2cccnc2)cs1` [Compound 046, N-[4-Methyl-3-(4-pyridin-3-yl-thiazol-2-ylamino)-phenyl]-4-pyridin-4-yl-benzamide], the melting point lay in the range of 254 to 256 °C.

The molecule `Cc1ccc(NC(=O)c2cccc(N(C)C)c2)cc1Nc1nc(-c2cccnc2)cs1` [Compound 088, 3-Dimethylamino-N-[4-methyl-3-(4-pyridin-3-yl-thiazol-2-ylamino)-phenyl]-benzamide] yielded a melting point of 197 to 198 °C.

For the molecule `Cc1ccc(NC(=O)c2cccc(F)c2)cc1Nc1nc(-c2cccnc2)cs1` [Compound 045, 3-Fluoro-N-[4-methyl-3-(4-pyridin-3-yl-thiazol-2-ylamino)-phenyl]-benzamide], the melting point is 184 to 186 °C.

Turning to `Cc1ccc(NC(=O)Nc2ccc(C)c(Nc3nc(-c4cccnc4)cs3)c2)cc1` [Compound 026, 3-[4-Methyl-3-(4-pyridin-3-yl-thiazol-2-ylamino)-phenyl]-3-p-tolyl-urea], the melting point fell in the range of 238 to 240 °C.

The molecule `Cc1ccc(NC(=O)CCCN2CCOCC2)cc1Nc1nc(-c2cccnc2)cs1` [Compound 096, N-[4-Methyl-3-(4-pyridin-3-yl-thiazol-2-ylamtino)-phenyl]-4-morpholin-4-yl-butyramide] showed a melting point of 116 to 120 °C.

In the case of `Cc1ccc(NC(=O)c2ccc(N(C)C)cc2)cc1Nc1nc(-c2cccnc2)cs1` [Compound 047, 4-Dimethylamino-N-[4-methyl-3-(4-pyridin-3-yl-thiazol-2-ylamino)-phenyl]-benzamide], the melting point was 147 to 150 °C.

In the case of `Cc1ccc(NC(=O)c2cccc(OCCN3CCOCC3)c2)cc1Nc1nc(-c2cccnc2)cs1` [Compound 052, N-[4-Methyl-3-(4-pyridin-3-yl-thiazol-2-ylamino)-phenyl]-3-(2-morpholin-4-yl-ethoxy)-benzamide], the melting point was 75 to 80 °C.

The molecule `Cc1ccc(NC(=O)Nc2cccc(F)c2)cc1Nc1nc(-c2cccnc2)cs1` [Compound 025, 1-(3-Fluoro-phenyl)-3-[4-methyl-3-(4-pyridin-3-yl-thiazol-2-ylamino)-phenyl]-urea] came in with a melting point of 210 to 215 °C.
